From patent publication US8192962B2, “Processes for detecting toxic substances” (Daikin Industries, Ltd., priority 2001, dated 2012)

System: Detoxification protein genes
Experiment: DNA chip mRNA expression in yeast, detoxification protein genes (Table 8)
Type: cell-based, Saccharomyces cerevisiae S288C
Procedure: Yeast (Saccharomyces cerevisiae S288C (α SUC2mal mel gap2 CUP1)) were incubated at 25° C. on YPD medium (yeast extract 1%, polypepton 2%, glucose 2%). One of toxic chemical substances was added to the cells at logarithmic growth phase, and the cells were further incubated for two hours. Cells were cultured without any chemical substance in the same condition, and were used as control. Concentrations of the chemical substances were defined to inhibit the growth of the yeast but not lead to death.
After completion of the incubation, the culture was centrifuged to collect the cells. To the cells, sodium acetate buffer (50 mM sodium acetate, 10 mM EDTA, 1% SDS) was added, and the mixture was shaken at 65° C. for five minutes, followed by returning to room temperature, and obtaining the supernatant, of which the procedures were repeated two times. To the supernatant, ½ amount of a solution of phenol/chloroform was added, and the mixture was centrifuged to give a supernatant, which was added with an equal amount of chloroform, and the mixture was centrifuged to give a supernatant. To the supernatant, an equal amount of isopropanol containing 0.3 M sodium acetate was added, and the mixture was allowed to stand at room temperature for 30 minutes, after which the mixture was centrifuged to give a sediment of the whole RNAs. Seventy % ethanol was added to the sediment, and the mixture was again centrifuged to give a sediment, which was then dried and dissolved in water. mRNA was isolated from the whole RNAs as followings. In view of the fact that a poly A chain is attached to the 3′ terminus of mRNA, a polynucleotide having a poly T structure which was immobilized on the surface of latex beads was used to trap the mRNA, and then the mRNA was washed and eluted with spine column (Oligotex-dT30<Super>mRNA Purification Kit, Takara). Reverse transcription of the mRNA was conducted with a reverse transcriptase (Super Script II Reverse Transcriptase; catalogue No. 18064-014, GibcoBRL) using fluorescence-labeled nucleotides to give cDNAs that were introduced with Cy3-dUTP or Cy5-dUTP during the reverse transcription.
The labeled cDNAs were dissolved in TE buffer (10mM Tris-HCl/1 mM EDTA, pH8.0), and the solution was dropped on the DNA chip containing the whole genes of yeast (DNA Chip Research Inc. Japan) so that the cDNAs were hybridized on the DNA chip at 65° C. for over 12 hours. The fluoresces intensity of the DNA chip was read with a scanner, and the ratio relative to the fluorescence intensity resulting from the absence of chemical substance was estimated as the following, which is shown in Tables 1 to 9: […]

## manganese ethylenebis(dithiocarbamate) [(8)]
Yeast gene YBL064C
  The level of expressed mRNA in the presence of chemical substance/The level of expressed mRNA in the absence of chemical substance: 2.4
Yeast gene YBR008C
  The level of expressed mRNA in the presence of chemical substance/The level of expressed mRNA in the absence of chemical substance: 2.8
Yeast gene YBR145W
  The level of expressed mRNA in the presence of chemical substance/The level of expressed mRNA in the absence of chemical substance: 1.0
Yeast gene YBR244W
  The level of expressed mRNA in the presence of chemical substance/The level of expressed mRNA in the absence of chemical substance: 1.0
Yeast gene YBR293W
  The level of expressed mRNA in the presence of chemical substance/The level of expressed mRNA in the absence of chemical substance: 0.9
Yeast gene YCL035C
  The level of expressed mRNA in the presence of chemical substance/The level of expressed mRNA in the absence of chemical substance: 1.4
Yeast gene YCL069W
  The level of expressed mRNA in the presence of chemical substance/The level of expressed mRNA in the absence of chemical substance: 1.3
Yeast gene YCR083W
  The level of expressed mRNA in the presence of chemical substance/The level of expressed mRNA in the absence of chemical substance: 1.5
Yeast gene YDL100C
  The level of expressed mRNA in the presence of chemical substance/The level of expressed mRNA in the absence of chemical substance: 1.7
Yeast gene YDL168W
  The level of expressed mRNA in the presence of chemical substance/The level of expressed mRNA in the absence of chemical substance: 1.7
Yeast gene YDR256C
  The level of expressed mRNA in the presence of chemical substance/The level of expressed mRNA in the absence of chemical substance: 0.8
Yeast gene YDR453C
  The level of expressed mRNA in the presence of chemical substance/The level of expressed mRNA in the absence of chemical substance: 1.3
Yeast gene YDR513W
  The level of expressed mRNA in the presence of chemical substance/The level of expressed mRNA in the absence of chemical substance: 1.6
Yeast gene YDR538W
  The level of expressed mRNA in the presence of chemical substance/The level of expressed mRNA in the absence of chemical substance: 1.0
Yeast gene YEL027W
  The level of expressed mRNA in the presence of chemical substance/The level of expressed mRNA in the absence of chemical substance: 0.9
Yeast gene YEL065W
  The level of expressed mRNA in the presence of chemical substance/The level of expressed mRNA in the absence of chemical substance: 0.9
Yeast gene YER185W
  The level of expressed mRNA in the presence of chemical substance/The level of expressed mRNA in the absence of chemical substance: 1.0
Yeast gene YFL050C
  The level of expressed mRNA in the presence of chemical substance/The level of expressed mRNA in the absence of chemical substance: 0.9
Yeast gene YGL013C
  The level of expressed mRNA in the presence of chemical substance/The level of expressed mRNA in the absence of chemical substance: 1.4
Yeast gene YGL254W
  The level of expressed mRNA in the presence of chemical substance/The level of expressed mRNA in the absence of chemical substance: 1.4
Yeast gene YGR088W
  The level of expressed mRNA in the presence of chemical substance/The level of expressed mRNA in the absence of chemical substance: 0.8
Yeast gene YGR138C
  The level of expressed mRNA in the presence of chemical substance/The level of expressed mRNA in the absence of chemical substance: 1.0
Yeast gene YGR197C
  The level of expressed mRNA in the presence of chemical substance/The level of expressed mRNA in the absence of chemical substance: 0.8
Yeast gene YGR209C
  The level of expressed mRNA in the presence of chemical substance/The level of expressed mRNA in the absence of chemical substance: 1.6
Yeast gene YGR224W
  The level of expressed mRNA in the presence of chemical substance/The level of expressed mRNA in the absence of chemical substance: 0.6
Yeast gene YHL040C
  The level of expressed mRNA in the presence of chemical substance/The level of expressed mRNA in the absence of chemical substance: 1.5
Yeast gene YHL047C
  The level of expressed mRNA in the presence of chemical substance/The level of expressed mRNA in the absence of chemical substance: 1.5
Yeast gene YHR008C
  The level of expressed mRNA in the presence of chemical substance/The level of expressed mRNA in the absence of chemical substance: 0.9
Yeast gene YHR048W
  The level of expressed mRNA in the presence of chemical substance/The level of expressed mRNA in the absence of chemical substance: 1.9
Yeast gene YHR053C
  The level of expressed mRNA in the presence of chemical substance/The level of expressed mRNA in the absence of chemical substance: 2.2
Yeast gene YHR055C
  The level of expressed mRNA in the presence of chemical substance/The level of expressed mRNA in the absence of chemical substance: 2.1
Yeast gene YIR002C
  The level of expressed mRNA in the presence of chemical substance/The level of expressed mRNA in the absence of chemical substance: 1.2
Yeast gene YIR038C
  The level of expressed mRNA in the presence of chemical substance/The level of expressed mRNA in the absence of chemical substance: 1.3
Yeast gene YJL101C
  The level of expressed mRNA in the presence of chemical substance/The level of expressed mRNA in the absence of chemical substance: 1.3
Yeast gene YJR104C
  The level of expressed mRNA in the presence of chemical substance/The level of expressed mRNA in the absence of chemical substance: 1.5
Yeast gene YKL026C
  The level of expressed mRNA in the presence of chemical substance/The level of expressed mRNA in the absence of chemical substance: 1.8
Yeast gene YKL064W
  The level of expressed mRNA in the presence of chemical substance/The level of expressed mRNA in the absence of chemical substance: 0.9
Yeast gene YKR066C
  The level of expressed mRNA in the presence of chemical substance/The level of expressed mRNA in the absence of chemical substance: 0.7
Yeast gene YKR105C
  The level of expressed mRNA in the presence of chemical substance/The level of expressed mRNA in the absence of chemical substance: 1.3
Yeast gene YKR106W
  The level of expressed mRNA in the presence of chemical substance/The level of expressed mRNA in the absence of chemical substance: 1.3
Yeast gene YLL028W
  The level of expressed mRNA in the presence of chemical substance/The level of expressed mRNA in the absence of chemical substance: 0.7
Yeast gene YLL057C
  The level of expressed mRNA in the presence of chemical substance/The level of expressed mRNA in the absence of chemical substance: 1.4
Yeast gene YLL060C
  The level of expressed mRNA in the presence of chemical substance/The level of expressed mRNA in the absence of chemical substance: 5.8
Yeast gene YLR043C
  The level of expressed mRNA in the presence of chemical substance/The level of expressed mRNA in the absence of chemical substance: 1.1
Yeast gene YLR046C
  The level of expressed mRNA in the presence of chemical substance/The level of expressed mRNA in the absence of chemical substance: 0.5
Yeast gene YML028W
  The level of expressed mRNA in the presence of chemical substance/The level of expressed mRNA in the absence of chemical substance: 0.8
Yeast gene YML116W
  The level of expressed mRNA in the presence of chemical substance/The level of expressed mRNA in the absence of chemical substance: 2.2
Yeast gene YMR015C
  The level of expressed mRNA in the presence of chemical substance/The level of expressed mRNA in the absence of chemical substance: 0.7
Yeast gene YMR038C
  The level of expressed mRNA in the presence of chemical substance/The level of expressed mRNA in the absence of chemical substance: 1.9
Yeast gene YNL239W
  The level of expressed mRNA in the presence of chemical substance/The level of expressed mRNA in the absence of chemical substance: 1.3
Yeast gene YNL241C
  The level of expressed mRNA in the presence of chemical substance/The level of expressed mRNA in the absence of chemical substance: 0.9
Yeast gene YNL259C
  The level of expressed mRNA in the presence of chemical substance/The level of expressed mRNA in the absence of chemical substance: 1.5
Yeast gene YOL158C
  The level of expressed mRNA in the presence of chemical substance/The level of expressed mRNA in the absence of chemical substance: 0.7
Yeast gene YOR031W
  The level of expressed mRNA in the presence of chemical substance/The level of expressed mRNA in the absence of chemical substance: 0.9
Yeast gene YOR153W
  The level of expressed mRNA in the presence of chemical substance/The level of expressed mRNA in the absence of chemical substance: 0.5
Yeast gene YOR247W
  The level of expressed mRNA in the presence of chemical substance/The level of expressed mRNA in the absence of chemical substance: 0.7
Yeast gene YOR251C
  The level of expressed mRNA in the presence of chemical substance/The level of expressed mRNA in the absence of chemical substance: 1.1
Yeast gene YOR273C
  The level of expressed mRNA in the presence of chemical substance/The level of expressed mRNA in the absence of chemical substance: 0.6
Yeast gene YPL163C
  The level of expressed mRNA in the presence of chemical substance/The level of expressed mRNA in the absence of chemical substance: 0.5
Yeast gene YPR200C
  The level of expressed mRNA in the presence of chemical substance/The level of expressed mRNA in the absence of chemical substance: 1.4
